The source of these data is patent US10449168B2 (The University of Toledo, priority 2015, dated 2019).

What is called Ki is a dissociation constant, usually derived from enzyme kinetics or from competition with a known ligand.

Common to all, as to assay type: biochemical
Experiment [1] concerns the target T1, Vibrio cholerae aspartate semialdehyde dehydrogenase (vcASADH) (Vibrio cholerae serotype O1, UniProt P23247).
T1 construct: made in house
As to the kind of experiment: biochemical. The conditions noted are these: for inhibition / binding affinity for vcASADH (in words): relative to parent or neighbouring derivative.

The target of experiment [2] is T2, Streptococcus pneumoniae aspartate semialdehyde dehydrogenase (spASADH) (Streptococcus pneumoniae, UniProt Q8DQ00).
T2 construct: homodimer from general knowledge
T2 sequence (Q8DQ00 1-358): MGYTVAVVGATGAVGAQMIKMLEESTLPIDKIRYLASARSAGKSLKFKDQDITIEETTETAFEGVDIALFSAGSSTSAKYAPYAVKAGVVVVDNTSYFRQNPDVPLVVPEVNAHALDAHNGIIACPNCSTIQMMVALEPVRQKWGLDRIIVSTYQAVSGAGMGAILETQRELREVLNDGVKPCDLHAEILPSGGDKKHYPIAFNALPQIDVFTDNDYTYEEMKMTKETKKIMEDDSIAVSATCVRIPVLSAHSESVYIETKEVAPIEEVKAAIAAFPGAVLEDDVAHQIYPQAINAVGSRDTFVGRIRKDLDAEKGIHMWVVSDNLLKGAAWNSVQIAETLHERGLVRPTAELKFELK
As to the kind of experiment: spASADH kinetic assay: reverse direction, NADPH absorbance at 340 nm; Ki from Dixon plot assuming competitive inhibition against ASA. The conditions noted are these: pH 8.6, r.t., 0.15 mM ASA, 1.5 mM NADP, 20 mM phosphate.

Experiment [3] deals with Streptococcus pneumoniae aspartate semialdehyde dehydrogenase (spASADH) (Streptococcus pneumoniae, UniProt Q8DQ00). As to the kind of experiment: biochemical. The conditions noted are these: for inhibition / binding affinity for spASADH (in words): relative to parent or neighbouring derivative.
For experiment [4], the target named is Vibrio cholerae aspartate semialdehyde dehydrogenase (vcASADH). As to the kind of experiment: vcASADH kinetic assay: reverse direction, NADPH absorbance at 340 nm; Ki from Dixon plot assuming competitive inhibition against ASA. The conditions noted are these: pH 8.6, r.t., 0.3 mM ASA, 1.5 mM NADP, 20 mM phosphate.
Where [5] appears, read: competitive vs ASA, 0.15 mM ASA, pH 8.6, read-out: Ki for spASADH.

“Also recorded” adds a separate entry of the source.

T1 sequence (P23247 whole entry): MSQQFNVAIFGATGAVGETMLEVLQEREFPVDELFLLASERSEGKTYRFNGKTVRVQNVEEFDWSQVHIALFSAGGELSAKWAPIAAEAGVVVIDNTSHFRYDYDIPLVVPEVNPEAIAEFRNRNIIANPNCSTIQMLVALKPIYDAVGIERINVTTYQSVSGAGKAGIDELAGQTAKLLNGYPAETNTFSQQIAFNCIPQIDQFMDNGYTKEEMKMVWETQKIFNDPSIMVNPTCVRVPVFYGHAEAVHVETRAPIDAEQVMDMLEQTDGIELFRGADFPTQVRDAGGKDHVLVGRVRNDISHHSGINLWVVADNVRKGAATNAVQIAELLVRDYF

Turning to `O=C(O)CNCc1ccc(C(=O)O)c(C(=O)O)c1` [Compound 3, N-carboxymethyl-3,4-dicarboxybenzylamine], the Ki in experiment [1] amounted to 500 µM; in experiment [2] (FIG. 4, Table 1), 246 ± 20 µM. For the same compound, the “inhibition / binding affinity for vcASADH (in words)” value in experiment [1] is “high millimolar inhibitor”. Also, the “inhibition / binding affinity for spASADH (in words)” value in experiment [3] is “two-fold stronger inhibitor; also recorded: high millimolar inhibitor”.

On to `O=C(O)CCNCc1ccc(C(=O)O)c(C(=O)O)c1` [Compound 4, N-carboxyethyl-3,4-dicarboxybenzylamine], for which the “inhibition / binding affinity for vcASADH (in words)” value in experiment [1] is listed as “did not show appreciable inhibition”. The inhibitory constant (Ki) in experiment [3] (setting [5]) turned out to be 2400 µM. Also, the “inhibition / binding affinity for spASADH (in words)” value in experiment [3] is “substantial affinity loss”.

In the case of `CN(CC(=O)O)Cc1cccc(C(=O)O)c1C(=O)O` [Compound 9, N-methyl, N-carboxymethyl-2,3-dicarboxybenzylamine], the “inhibition / binding affinity for vcASADH (in words)” value in experiment [1] is on record as “no inhibition”. Further, the Ki in experiment [3] (setting [5]) was found to be 1800 µM.

Consider `CN(CC(=O)O)Cc1ccc(C(=O)O)c(C(=O)O)c1` [Compound 10, N-methyl, N-carboxymethyl-3,4-dicarboxybenzylamine], for which the Ki in experiment [2] (FIG. 4, Table 1) was determined as 296 ± 36 µM; in experiment [4] (FIG. 4, Table 1), 675 ± 54 µM.

Turning to `C=CCN(CC(=O)O)Cc1ccc(C(=O)O)c(C(=O)O)c1` [Compound 11, N-allyl, N-carboxymethyl-3,4-dicarboxybenzylamine], the inhibition constant (Ki) in experiment [2] (FIG. 4, Table 1) was 303 ± 22 µM; in experiment [4] (FIG. 4, Table 1), 663 ± 36 µM.

For `O=C(O)CN(Cc1ccccc1)Cc1ccc(C(=O)O)c(C(=O)O)c1` [Compound 13, N-benzyl, N-carboxymethyl-3,4-dicarboxybenzylamine], the Ki was determined as 297 ± 14 µM in experiment [2] (FIG. 4, Table 1) and 696 ± 33 µM in experiment [4] (FIG. 4, Table 1).

In the case of `O=C(O)CN(Cc1ccc(C(=O)O)c(C(=O)O)c1)Cc1cccc2ccccc12` [Compound 14], the “inhibition / binding affinity for spASADH (in words)” value in experiment [3] is on record as “slightly worse inhibition”.

In the case of `O=C(O)CN(Cc1ccc(C(=O)O)c(C(=O)O)c1)c1ccc2ccccc2c1` [Compound 15, N-(2-naphthyl)-N-carboxymethyl-3,4-dicarboxybenzylamine], the inhibition constant (Ki) worked out at 329 ± 22 µM in experiment [2] (FIG. 4, Table 1) and 724 ± 47 µM in experiment [4] (FIG. 4, Table 1). The “inhibition / binding affinity for spASADH (in words)” value in experiment [3] is listed as “slightly worse inhibition”.

In the case of `O=C(O)CN(CCN1CCOCC1)Cc1ccc(C(=O)O)c(C(=O)O)c1` [Compound 16, N-(ethylmorpholino)-N-carboxymethyl-3,4-dicarboxybenzylamine], the “inhibition / binding affinity for spASADH (in words)” value in experiment [3] is “only a slight improvement”.

On to `O=C(O)CN(Cc1ccc(C(=O)O)c(C(=O)O)c1)c1ccc(-c2ccccc2)cc1` [Compound 17, N-(4-biphenyl)-N-carboxymethyl-3,4-dicarboxybenzylamine], for which the inhibition constant Ki in experiment [4] (FIG. 4, Table 1) amounted to 634 ± 29 µM. Besides, the “improved inhibition of spASADH relative to the parent benzyl derivative” value in experiment [3] (relative to parent benzyl derivative) was found to be 25 fold. In experiment [3], the “inhibition / binding affinity for spASADH (in words)” value is reported as “improved binding affinity”.

`O=C(O)CN(Cc1ccc(C(=O)O)c(C(=O)O)c1)Cc1ccccc1Br` [Compound 18, N-(2-bromobenzyl)-N-carboxymethyl-3,4-dicarboxybenzylamine]: the Ki in experiment [2] (FIG. 5, Table 2) turned out to be 529 ± 38 µM; in experiment [4] (FIG. 5, Table 2), 737 ± 49 µM. For the same compound, in experiment [3], the “inhibition / binding affinity for spASADH (in words)” value is “did not yield any improvement in affinity”.

For `O=C(O)CN(Cc1cccc(Br)c1)Cc1ccc(C(=O)O)c(C(=O)O)c1` [Compound 19, N-(3-bromobenzyl)-N-carboxymethyl-3,4-dicarboxybenzylamine], the Ki in experiment [2] (FIG. 5, Table 2) was found to be 442 ± 29 µM; in experiment [4] (FIG. 5, Table 2), 665 ± 37 µM. Further, the “inhibition / binding affinity for spASADH (in words)” value in experiment [3] was “did not yield any improvement in affinity”.

As for `Cc1ccccc1CN(CC(=O)O)Cc1ccc(C(=O)O)c(C(=O)O)c1` [Compound 21, N-(2-methylbenzyl)-N-carboxymethyl-3,4-dicarboxybenzylamine], the Ki stood at 524 ± 27 µM in experiment [2] (FIG. 5, Table 2) and 721 ± 46 µM in experiment [4] (FIG. 5, Table 2). The “inhibition / binding affinity for spASADH (in words)” value in experiment [3] is “did not yield any improvement in affinity”.

Regarding `Cc1cccc(CN(CC(=O)O)Cc2ccc(C(=O)O)c(C(=O)O)c2)c1` [Compound 22, N-(3-methylbenzyl)-N-carboxymethyl-3,4-dicarboxybenzylamine], the inhibition constant (Ki) in experiment [2] (FIG. 5, Table 2) came out at 430 ± 22 µM; in experiment [4] (FIG. 5, Table 2) it was 690 ± 41 µM. The “inhibition / binding affinity for spASADH (in words)” value in experiment [3] is listed as “did not yield any improvement in affinity”.

Consider `Cc1ccc(CN(CC(=O)O)Cc2ccc(C(=O)O)c(C(=O)O)c2)cc1` [Compound 23, N-(4-methylbenzyl)-N-carboxymethyl-3,4-dicarboxybenzylamine], for which the “inhibition / binding affinity for vcASADH (in words)” value in experiment [1] is reported as “did not show any improved affinity”. The inhibition constant Ki in experiment [2] (FIG. 5, Table 2) came to 63 ± 7 µM; in experiment [4] (FIG. 5, Table 2) it was 608 ± 42 µM.

Take `O=C(O)CN(Cc1ccc(C(F)(F)F)cc1)Cc1ccc(C(=O)O)c(C(=O)O)c1` [Compound 26, N-(4-trifluoromethylbenzyl)-N-carboxymethyl-3,4-dicarboxybenzylamine]: in experiment [4] (FIG. 5, Table 2), the inhibitory constant (Ki) worked out at 628 ± 48 µM. The “inhibition / binding affinity for spASADH (in words)” value in experiment [3] was “two-fold additional improvement in binding affinity”.

Regarding `O=C(O)CN(Cc1ccc(OC(F)(F)F)cc1)Cc1ccc(C(=O)O)c(C(=O)O)c1` [Compound 29, N-(4-trifluoromethoxybenzyl)-N-carboxymethyl-3,4-dicarboxybenzylamine], the inhibition constant (Ki) in experiment [2] (FIG. 5, Table 2) is 36 ± 6 µM; in experiment [4] (FIG. 5, Table 2), 663 ± 39 µM. Further, the “inhibition / binding affinity for spASADH (in words)” value in experiment [3] was “two-fold additional improvement in binding affinity”.

With `O=C(O)CN(Cc1ccc(OC(F)F)cc1)Cc1ccc(C(=O)O)c(C(=O)O)c1` [Compound 30, N-(4-difluoromethoxybenzyl)-N-carboxymethyl-3,4-dicarboxybenzylamine], the Ki in experiment [2] (FIG. 5, Table 2) is 54 ± 5 µM; in experiment [4] (FIG. 5, Table 2), 698 ± 44 µM. Further, in experiment [3], the “inhibition / binding affinity for spASADH (in words)” value is recorded as “reversed this improvement”.

`O=C(O)CN(Cc1ccc(C(=O)O)cc1)Cc1ccc(C(=O)O)c(C(=O)O)c1` [Compound 31, N-(4-carboxybenzyl)-N-carboxymethyl-3,4-dicarboxybenzylamine]: the Ki in experiment [2] (FIG. 5, Table 2) was determined as 72 ± 7 µM; in experiment [4] (FIG. 5, Table 2), 635 ± 55 µM. Besides, in experiment [3], the “inhibition / binding affinity for spASADH (in words)” value is listed as “comparable affinity to that observed for the p-methylbenzyl derivative (23)”.

`NC(=O)c1ccc(CN(CC(=O)O)Cc2ccc(C(=O)O)c(C(=O)O)c2)cc1` [Compound 32, N-(4-carboxamidebenzyl)-N-carboxymethyl-3,4-dicarboxybenzylamine]: the Ki in experiment [2] (FIG. 5, Table 2) is 229 ± 32 µM; in experiment [4] (FIG. 5, Table 2), 649 ± 25 µM. Also, the loss of affinity in experiment [3] (carboxamide vs p-carboxyl derivative (31)) is listed as 3 fold.

With `CC(C)(C)c1ccc(CN(CC(=O)O)Cc2ccc(C(=O)O)c(C(=O)O)c2)cc1` [Compound 33, N-(4-t-butylbenzyl)-N-carboxymethyl-3,4-dicarboxybenzylamine], the Ki in experiment [4] (FIG. 5, Table 2) worked out at 648 ± 32 µM; in experiment [3] (setting [5]), 16 µM. Moreover, the “selectivity for spASADH relative to vcASADH” value in experiment [3] (Gram-positive spASADH over Gram-negative vcASADH) is “over 40 fold”. In experiment [3], the “inhibition / binding affinity for spASADH (in words)” value is on record as “additional two-fold improvement”.

For `O=C(O)CN(Cc1ccc(C(F)(C(F)(F)F)C(F)(F)F)cc1)Cc1ccc(C(=O)O)c(C(=O)O)c1` [Compound 34, N-(4-(2-perfluoropropyl))-N-carboxymethyl-3,4-dicarboxybenzylamine], the Ki in experiment [4] (FIG. 5, Table 2) came to 639 ± 37 µM. Further, in experiment [3], the inhibition constant (Ki) was determined as 9 µM and the “inhibition / binding affinity for spASADH (in words)” value is “low micromolar K value”.

As for `O=C(O)CCN(Cc1ccc(Br)cc1)Cc1ccc(C(=O)O)c(C(=O)O)c1` [Compound 35, N-(4-bromobenzyl)-N-carboxyethyl-3,4-dicarboxybenzylamine], the inhibition constant (Ki) in experiment [2] (FIG. 5, Table 2) came to 3600 ± 230 µM. The “inhibition / binding affinity for spASADH (in words)” value in experiment [3] is “substantial affinity loss”.

In turn, `O=C(O)CN(Cc1ccc(C(F)(F)F)cc1)Cc1ccc(C(=O)O)c(C(=O)O)c1` [Compound 36, N-(4-trifluoromethylbenzyl)-N-carboxymethyl-3,4-dicarboxybenzylamine] showed a Ki in experiment [2] (FIG. 5, Table 2) of 3800 ± 220 µM. For the same compound, the “inhibition / binding affinity for spASADH (in words)” value in experiment [3] is recorded as “substantial affinity loss”.

On to `CC(=O)N(CC(=O)O)Cc1ccc(C(=O)O)c(C(=O)O)c1` [Compound 37, N-acetal-N-carboxymethyl-3,4-dicarboxybenzylamine], for which the inhibition constant (Ki) is 276 ± 16 µM in experiment [2] (FIG. 4, Table 1) and 655 ± 51 µM in experiment [4] (FIG. 4, Table 1).

As to `O=C(O)CN(Cc1ccc(C=Cc2ccccc2)cc1)Cc1ccc(C(=O)O)c(C(=O)O)c1` [Compound 38, N-((4-(2-benzyl)vinyl)benzyl)-N-carboxymethyl-3,4-dicarboxybenzylamine], the Ki in experiment [4] (FIG. 5, Table 2) was 1100 ± 200 µM.

With “N-(1-naphthyl)-N-carboxymethyl-3,4-dicarboxybenzylamine [Compound 14]”, the Ki in experiment [2] (FIG. 4, Table 1) was 396 ± 42 µM; in experiment [4] (FIG. 4, Table 1), 749 ± 54 µM.

“N-acetonitrile, N-carboxymethyl-3,4-dicarboxybenzylamine [Compound 12]”: the Ki in experiment [2] (FIG. 4, Table 1) turned out to be 220 ± 14 µM; in experiment [4] (FIG. 4, Table 1), 498 ± 27 µM.
